Here are results for five compounds from PubChem BioAssay AID1963856 (Molecular Pharmacology Branch, DTP, NCI, 2024).

The assay has as its system LG0567-F671-PDC KRAS tumor spheroid viability. Briefly: Anticancer human tumor LG0567-F671-PDC patient-derived lung adenocarcinoma cell line growth inhibition [KRAS2]. To be noted: spheroids with HUVEC and MSC; for IC50: curve of first compound; for viability, T/C: stronger effect = lower value. The gist of the method:
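Combination screen of spheroid viability in tumor-cell co-cultures with endothelial (HUVEC) and mesenchymal stem cell stroma. Each agent was tested in half-log dilutions, topping at clinical Cmax or at 10 microM without a known Cmax.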

Setting [1] is: second compound 0.1 µM, first compound 0.0316 µM.
[2] abbreviates: second compound 0.1 µM, first compound 0.1 µM.
Where [3] appears, read: second compound 0.316 µM, first compound 0.0316 µM.
Where [4] appears, read: second compound 0.316 µM, first compound 0.1 µM.
Where [5] appears, read: second compound 1 µM, first compound 0.0316 µM.
Setting [6] is: second compound 1 µM, first compound 0.1 µM.
[7] abbreviates: second compound 3.16 µM, first compound 0.0316 µM.
[8] abbreviates: second compound 3.16 µM, first compound 0.1 µM.
The mark [9] stands for this setting: second compound 10 µM, first compound 0.0316 µM.
[10] abbreviates: second compound 10 µM, first compound 0.1 µM.
The mark [11] stands for this setting: second compound 0.1 µM, first compound 0.316 µM.
The mark [12] stands for this setting: second compound 0.1 µM, first compound 1 µM.
[13] abbreviates: second compound 0.1 µM, first compound 3.16 µM.
The mark [14] stands for this setting: second compound 0.1 µM, first compound 10 µM.
[15] abbreviates: second compound 0.316 µM, first compound 0.316 µM.
Where [16] appears, read: second compound 0.316 µM, first compound 1 µM.
Setting [17] is: second compound 0.316 µM, first compound 3.16 µM.
[18] abbreviates: second compound 0.316 µM, first compound 10 µM.
Where [19] appears, read: second compound 1 µM, first compound 0.316 µM.
Setting [20] is: second compound 1 µM, first compound 1 µM.
Where [21] appears, read: second compound 1 µM, first compound 3.16 µM.
Where [22] appears, read: second compound 1 µM, first compound 10 µM.
Setting [23] is: second compound 3.16 µM, first compound 0.316 µM.
Where [24] appears, read: second compound 3.16 µM, first compound 1 µM.
Setting [25] is: second compound 3.16 µM, first compound 3.16 µM.
The mark [26] stands for this setting: second compound 3.16 µM, first compound 10 µM.
[27] abbreviates: second compound 10 µM, first compound 0.316 µM.
Where [28] appears, read: second compound 10 µM, first compound 1 µM.
Where [29] appears, read: second compound 10 µM, first compound 3.16 µM.
Setting [30] is: second compound 10 µM, first compound 10 µM.

The structures appear in SMILES notation.
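Note: drug exposure lasted seven days after spheroids formed for three days.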
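Throughout, for viability, T/C: 100% = DMSO vehicle control viability.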

One may read the IC50 as the concentration needed to halve the response being measured. A word on the viability, T/C: it is the result in the treated group divided by that in the control group, in per cent. In the case of `Cn1ncnc1[C@H]1c2n[nH]c(=O)c3cc(F)cc(c23)N[C@@H]1c1ccc(F)cc1` + CC1OCC2(CCN(c3cnc(Sc4ccnc(N)c4Cl)c(N)n3)CC2)C1N, the IC50 is, setting by setting: (second compound 0.1 µM) < 0.316 nM; (second compound 0.316 µM) < 0.316 nM; (second compound 1 µM) < 0.316 nM; (second compound 3.16 µM) < 0.316 nM; (second compound 10 µM) < 0.316 nM. For the same compound, the viability, T/C was 48.9% (second compound 0.1 µM, first compound 0.000316 µM); 53.1% (second compound 0.1 µM, first compound 0.001 µM); 52.4% (second compound 0.1 µM, first compound 0.00316 µM); 56.4% (second compound 0.1 µM, first compound 0.01 µM); 57.3% under setting [1]; 54.9% under setting [2]. The viability, T/C was 47% (second compound 0.316 µM, first compound 0.000316 µM); 34.5% (second compound 0.316 µM, first compound 0.001 µM); 29.1% (second compound 0.316 µM, first compound 0.00316 µM); 36.4% (second compound 0.316 µM, first compound 0.01 µM); 32.8% under setting [3]; 35.2% under setting [4]. Besides, the viability, T/C is 29.4% (second compound 1 µM, first compound 0.000316 µM); 25.9% (second compound 1 µM, first compound 0.001 µM); 21.9% (second compound 1 µM, first compound 0.00316 µM); 18.9% (second compound 1 µM, first compound 0.01 µM); 22.5% under setting [5]; 23.3% under setting [6]. The viability, T/C reads like this: (second compound 3.16 µM, first compound 0.000316 µM) 24.4%; (second compound 3.16 µM, first compound 0.001 µM) 19.1%; (second compound 3.16 µM, first compound 0.00316 µM) 19.1%; (second compound 3.16 µM, first compound 0.01 µM) 15.3%; under setting [7], 12%; under setting [8], 13.8%. In addition, the viability, T/C (second compound 10 µM, first compound 0.000316 µM) was 11.2%; the viability, T/C (second compound 10 µM, first compound 0.001 µM) was 12.2%; the viability, T/C (second compound 10 µM, first compound 0.00316 µM) was 15.7%; the viability, T/C (second compound 10 µM, first compound 0.01 µM) was 9.32%; the viability, T/C under setting [9] is 8.87%; the viability, T/C under setting [10] was 7.89%.
Take `COc1cc(Nc2ncc3c(n2)-c2ccc(Cl)cc2C(c2c(F)cccc2OC)=NC3)ccc1C(=O)O` + CC1OCC2(CCN(c3cnc(Sc4ccnc(N)c4Cl)c(N)n3)CC2)C1N: the half-inhibitory concentration (IC50) reads like this: (second compound 0.1 µM) 204 nM; (second compound 0.316 µM) < 31.6 nM; (second compound 1 µM) < 31.6 nM; (second compound 3.16 µM) < 31.6 nM; (second compound 10 µM) < 31.6 nM. Moreover, the viability, T/C reads like this: under setting [1], 58.7%; under setting [2], 49.6%; under setting [11], 45.7%; under setting [12], 47.1%; under setting [13], 40.3%; under setting [14], 31.7%. Moreover, the viability, T/C under setting [3] was 25.7%; the viability, T/C under setting [4] was 26%; the viability, T/C under setting [15] was 21.7%; the viability, T/C under setting [16] is 22.8%; the viability, T/C under setting [17] is 23.8%; the viability, T/C under setting [18] was 18.8%. The viability, T/C reads like this: under setting [5], 17.6%; under setting [6], 19.2%; under setting [19], 18.1%; under setting [20], 18.5%; under setting [21], 17.2%; under setting [22], 14.9%. Also, the viability, T/C was 12.1% under setting [7]; 8.31% under setting [8]; 8.93% under setting [23]; 8.9% under setting [24]; 4.29% under setting [25]; 5.34% under setting [26]. For the same compound, the viability, T/C was 4.83% under setting [9]; 3.93% under setting [10]; 3.68% under setting [27]; 3.68% under setting [28]; 3.65% under setting [29]; 4.21% under setting [30].
On to `CC(=O)OC12COC1CC(O)C1(C)C(=O)C(O)C3=C(C)C(OC(=O)C(O)C(NC(=O)OC(C)(C)C)c4ccccc4)CC(O)(C(OC(=O)c4ccccc4)C21)C3(C)C` (stereo not given), for which the viability, T/C reads like this: (compound 0.01 µM) 67% [middle of 5 runs]; (compound 0.0316 µM) 57.6% [middle of 5 runs]; (compound 0.1 µM) 63.3% [middle of 5 runs]; (compound 0.316 µM) 63.1% [middle of 5 runs]; (compound 1 µM) 73.7% [middle of 5 runs]; (compound 3.16 µM) 70.1% [middle of 5 runs].
Regarding `COc1cc(Nc2ncc3c(n2)-c2ccc(Cl)cc2C(c2c(F)cccc2OC)=NC3)ccc1C(=O)O` + CNCc1ccccc1-c1csc(C(C)Nc2nc(C)nc3cc(OC)c(OC)cc23)c1, the IC50 was 3000 nM (second compound 0.1 µM); 343 nM (second compound 0.316 µM); 262 nM (second compound 1 µM); < 31.6 nM (second compound 3.16 µM); < 31.6 nM (second compound 10 µM). Besides, the viability, T/C by setting is: under setting [1], 72%; under setting [2], 62%; under setting [11], 58.1%; under setting [12], 60.6%; under setting [13], 51.4%; under setting [14], 37.8%. Also, the viability, T/C under setting [3] was 56.3%; the viability, T/C under setting [4] is 54.3%; the viability, T/C under setting [15] was 48.2%; the viability, T/C under setting [16] was 45.6%; the viability, T/C under setting [17] was 42.4%; the viability, T/C under setting [18] is 32%. Also, the viability, T/C reads like this: under setting [5], 52.4%; under setting [6], 53.4%; under setting [19], 47%; under setting [20], 48.2%; under setting [21], 37.8%; under setting [22], 29%. Also, the viability, T/C under setting [7] is 12.8%; the viability, T/C under setting [8] is 16.8%; the viability, T/C under setting [23] is 14%; the viability, T/C under setting [24] was 3.3%; the viability, T/C under setting [25] was 0.97%; the viability, T/C under setting [26] is 1.05%. Also, the viability, T/C under setting [9] is 0.9%; the viability, T/C under setting [10] is 0.24%; the viability, T/C under setting [27] is 0.13%; the viability, T/C under setting [28] is 0.43%; the viability, T/C under setting [29] was 0.12%; the viability, T/C under setting [30] is 1.01%.
For `COc1cc(Nc2ncc3c(n2)-c2ccc(Cl)cc2C(c2c(F)cccc2OC)=NC3)ccc1C(=O)O`, the viability, T/C is, setting by setting: (compound 0.0316 µM) 92.8% [middle of 5 runs]; (compound 0.316 µM) 74% [middle of 5 runs]; (compound 3.16 µM) 67.6% [middle of 5 runs]; (compound 10 µM) 48.9% [middle of 5 runs].
